# Patent US8742100B2, “Small molecule inhibitors of isoprenylcysteine carboxyl methyltransferase with potential anticancer activity” (National University of Singapore, priority 2009, dated 2014)
# Where two headings read alike, the source gives them in different places.
# How the values were obtained:
# [1] = Binding to fetal bovine serum (plasma protein binding), centrifugal filter device, HPLC; format: in vitro ADME; conditions: bovine, 5% w/v fetal bovine serum in phosphate buffered saline; for fraction unbound at 30 min, 1 µM / fraction unbound at 30 min, 4 µM / fraction unbound at 30 min, 10 µM / fraction unbound at 30 min, 25 µM: 5% fetal bovine serum in PBS
# Procedure: (§1) Semi-automatic high-throughput determination of plasma protein binding using a 96-well plate filtrate assembly and fast liquid chromatography—tandem mass spectrometry. […] Stock solutions were prepared in DMSO at 100× higher concentrations. A 5% w/v solution of fetal bovine serum in phosphate buffered saline was prepared. An aliquot (10 μL of the stock solution was added to 990 μL of the PBS solution containing 5% fetal bovine serum in a glass tube which was then incubated in a shaking water bath at 37° C. for 30 min. 500 μL of the solution was then transferred to a centrifugal filter device (Amicon Ultra 0.5 ml # UFC503096) and centrifuged at 14 000g, 15 min. After this time, the filter units were removed and placed (upside down) in a collecting tube containing 477 μL, of PBS. The latter was centrifuged at 2000g, 2 min to obtain the retentate. […] J.
# [2] = tested on: fetal bovine serum; assay: as above; format: in vitro ADME; conditions: fetal bovine serum
# Procedure: as §1
# [3] = read-out: % Bound Average (converted)
# [4] = read-out: % Bound Run 1 (converted)
# [5] = read-out: % Bound Run 2 (converted)
# [6] = read-out: % Bound Run 3 (converted)
smiles,measurement,setting,value
"CCN(CC)Cc1cn(CC=C(C)C)c2ccc(-c3cccc(C)c3)cc12 [Compound J38G, N-ethyl-N-((1-(3-methylbut-2-enyl)-5-m-tolyl-1H-indol-3-yl)methyl)ethanamine]","fraction unbound at 30 min, 1 µM",[1]; [3],0.776
same,"fraction unbound at 30 min, 1 µM",[1]; [4],0.747
same,"fraction unbound at 30 min, 1 µM",[1]; [5],0.845
same,"fraction unbound at 30 min, 1 µM",[1]; [6],0.737
same,"fraction unbound at 30 min, 4 µM",[1]; [3],0.638
same,"fraction unbound at 30 min, 4 µM",[1]; [4],0.616
same,"fraction unbound at 30 min, 4 µM",[1]; [5],0.676
same,"fraction unbound at 30 min, 4 µM",[1]; [6],0.621
same,"fraction unbound at 30 min, 10 µM",[1]; [3],0.765
same,"fraction unbound at 30 min, 10 µM",[1]; [4],0.697
same,"fraction unbound at 30 min, 10 µM",[1]; [5],0.783
same,"fraction unbound at 30 min, 10 µM",[1]; [6],0.815
same,"fraction unbound at 30 min, 25 µM",[1]; [3],0.737
same,"fraction unbound at 30 min, 25 µM",[1]; [4],0.725
same,"fraction unbound at 30 min, 25 µM",[1]; [5],0.792
same,"fraction unbound at 30 min, 25 µM",[1]; [6],0.693
same,fraction unbound at 30 min,"[1]; all conc (1, 4, 10, 25 uM), read-out: % Bound Average, all conc (converted)",0.729
same,binding capacity compared with cysmethynil,[2],lower binding capacities than cysmethynil
